Test results reported in patent publication US20230293599A1, “BACTERIAL COMPOSITIONS WITH ANTI-INFLAMMATORY ACTIVITY” (Universiteit Gent, priority 2020, published 2023).
Read-outs that look alike come from different tables or passages of the source.

Key:
[1] = tested on: R. mucilaginosa; test: Biolog Phenotype Microarray PM1-2 growth on carbon sources; assay type: cell-based, Rothia mucilaginosa
Description: (§1) Using Phenotype Microarray (PM) panels (Biolog), the influence of 190 carbon sources on the growth of the potential probiotic species R. mucilaginosa, R. dentocariosa, R. gilardii, G. haemolysans, and common respiratory pathogens P. aeruginosa, and S. aureus was determined. PM1 and PM2 panels (Biolog) were inoculated according to the manufacturer's instructions. Growth curves were generated for 35 hours by measuring the absorbance at 590 nm using an EnVision (Perkin Elmer) plate reader.

[2] = tested on: G. haemolysans; test: as above; assay type: cell-based, Gemella haemolysans
Description: as §1

[3] = tested on: S. aureus; assay type: cell-based, Staphylococcus aureus
Method in brief: (§2)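 Growth on 190 carbon sources in Biolog PM1 and PM2 panels, inoculated per manufacturer's protocol. Growth curves followed for 35 hours by absorbance at 590 nm.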

[4] = tested on: R. dentocariosa; test: Biolog Phenotype Microarray PM1-2 growth on carbon sources; assay type: cell-based, Rothia dentocariosa
Description: as §1

[5] = tested on: P. aeruginosa; test: as above; assay type: cell-based, Pseudomonas aeruginosa
Method in brief: as §2

[6] = tested on: R. gilardii; test: as above; assay type: cell-based, Roseomonas gilardii
Description: as §1

[7] = tested on: NF-κB pathway; test: NF-κB-luciferase reporter 3-D A549 cells stimulated with LPS (Example 2); assay type: cell-based, human; conditions: acetate at 28.3 mM and 18.0 mM, 4-hour incubation (FIG. 10)
Description: 3-D cells of the human adenocarcinoma alveolar lung epithelial cell line A549 transfected with an NF-κB-luciferase reporter (BPS Bioscience, San Diego, CA) were prepared as described previously for A549 cells (Crabbé et al., 2016; Barrila et al., 2010; Harris et al. 2007; Chen et a., 2019). Briefly, a monolayer of NF-κB-A549 cells was grown in T75 cell culture flasks containing GTSF-2 medium (HyClone, Logan, UT) supplemented with 1.5 g/L sodium bicarbonate (Sigma-Aldrich), 10% fetal bovine serum (FBS, Life technologies), 2.5 mg/L insulin transferring sodium selenite (Lonza) and 1% penicillin-streptomycin (pen-strep, Life Technologies) at 37° C. under 5% CO2. At confluence, the cells were seeded in the Rotating Wall Vessel (RWV) bioreactor with type-1 collagen coated dextran beads at a cell to bead ratio of 2:1 and were cultured for 11 to 14 days. […]
The NF-κB pathway was activated in 3-D NF-κB -A549 cells by 4 hours stimulation with LPS (100 μg/mL) in the presence or absence (positive control) of each of the isolates (Table 1) at varying multiplicity of infection (MOI) starting from an MOI of 100 to an MOI of 1.56 by performing 1:2 serial dilutions. […] After 4 hours incubation, 3-D epithelial cells containing the NF-κB -luciferase reporter were transferred to a black 96-well plate for analysis of luminescence. […] Luminescence was measured by an EnVision (Perkin Elmer) luminometer.

[8] = 35 hours, absorbance 590 nm, n = 1, cells without values AUC < 50

| Compound | AUC of growth curve, R. mucilaginosa [1, 8] | AUC of growth curve, G. haemolysans [2, 8] | AUC of growth curve, S. aureus [3] | AUC of growth curve, R. dentocariosa [4, 8] | AUC of growth curve, P. aeruginosa [5, 8] | AUC of growth curve, R. gilardii [6, 8] | effect on LPS-stimulated NF-κB pathway activation [7] | AUC of growth curve, S. aureus [3, 8] | AUC of growth curve, R. mucilaginosa [1] | AUC of growth curve, G. haemolysans [2] | AUC of growth curve, R. dentocariosa [4] | AUC of growth curve, R. gilardii [6] | AUC of growth curve, P. aeruginosa [5] |
| --- | --- | --- | --- | --- | --- | --- | --- | --- | --- | --- | --- | --- | --- |
| O=C(CO)[C@@H](O)[C@H](O)[C@H](O)COP(=O)(O)O [D-Fructose-6-Phosphate] | 127.5 | 134.2 | 437.8 | 87.1 | 783.8 | – | – | – | – | – | – | – | – |
| OC[C@H]1O[C@H](O)[C@H](O)[C@@H](O)[C@@H]1O [α-D-Glucose] | 1068.2 | 1140.8 | 966.1 | 1288.0 | 830.2 | 115.5 | – | – | – | – | – | – | – |
| C[C@H](O)[C@H](O)[C@@H](O)[C@@H](O)C=O [L-Rhamnose] | 197.8 | 104.6 | 423.5 | 149.9 | 265.3 | 178.6 | – | – | – | – | – | – | – |
| CC(=O)O [acetate] | – | – | – | – | – | – | did not reduce | – | – | – | – | – | – |
| O=C[C@H](O)[C@@H](O)[C@@H](O)CO [L-Arabinose] | 195.3 | 120.4 | 356.7 | 314.8 | 1269.0 | 804.7 | – | – | – | – | – | – | – |
| O=C[C@@H](O)[C@@H](O)[C@H](O)[C@H](O)CO [D-Mannose] | 1017.6 | 218.6 | 729.5 | 106.1 | 495.0 | – | – | – | – | – | – | – | – |
| O=C[C@H](O)[C@H](O)[C@H](O)CO [D-Ribose] | 371.4 | 627.5 | 769.0 | 431.1 | 1450.3 | 718.5 | – | – | – | – | – | – | – |
| O=C[C@H](O)[C@@H](O)[C@H](O)CO [D-Xylose] | 157.4 | 581.3 | 92.4 | 257.9 | 1218.3 | 310.4 | – | – | – | – | – | – | – |
| CC(=O)C(=O)O [Pyruvic Acid] | 205.5 | 552.9 | 763.0 | 343.3 | 877.9 | 215.7 | – | – | – | – | – | – | – |
| NC(=O)[C@@H](O)[C@@H](O)[C@H](O)[C@@H](O)C=O [Glucuronamide] | 84.9 | 97.6 | 62.8 | 124.2 | 820.8 | 53.3 | – | – | – | – | – | – | – |
| O=C[C@H](O)[C@H](O)[C@@H](O)CO [L-Lyxose] | 377.5 | 430.7 | 308.4 | 474.8 | 1393.5 | 765.9 | – | – | – | – | – | – | – |
| Pectin | 199.5 | 68.6 | – | 683.6 | 334.5 | 141.7 | – | 996.1 | – | – | – | – | – |
| O=C(CO)[C@@H](O)[C@H](O)[C@H](O)CO [D-Fructose] | – | – | 992.9 | – | – | – | – | – | 1111.2 | 88.8 | 109.5 | 315.8 | 413.3 |
| C[C@H](O)[C@@H](O)[C@@H](O)[C@H](O)C=O [L-Fucose] | 155.6 | 95.6 | 277.6 | 478.0 | 701.4 | 86.6 | – | – | – | – | – | – | – |
